Earlier results on one compound are cited in patent publication US9738620B2, “Trientine prodrugs, pharmaceutical compositions thereof, and methods of use” (priority 2015, dated 2017).

Each structure is given as a SMILES string.

The conditions of the data set: Lu., Molecular Cancer Therapeutics. 2010, 9 (9), 2458-67.

As to `NCCNCCNCCN` [Trientine], the oral bioavailability is on record as 8-30%.
